Measurements: BindingDB's records for doi:10.1101/2020.12.16.422677 (Fraunhofer Institute for Translational Medicine and …, 2020)

What follows are compounds tested against Replicase polyprotein 1ab (Severe acute respiratory syndrome coronavirus 2, UniProt P0DTD1) (assay: Hit profiling assay with DTT).
`N#CSc1cc(SC#N)c(N)nc1N` [PR-619] gave an IC50 of 4410 nM. Work on `O=C1C=Cc2cc(Br)ccc2C1=O` [Bonaphthone] yielded an IC50 of 90 nM. `Cn1sc(=O)n(Cc2ccccc2)c1=O` [4-Benzyl-2-methyl-1,2,4-thiadiazolidine-3,5-dione] showed an IC50 of 140 nM. Compound `CN1CCN(C(c2ccc(C(F)(F)F)cc2)c2ccc3cccnc3c2O)CC1` (configuration not stated) has an IC50 of 1340 nM. Compound `Cc1c(-c2cnccn2)ssc1=S` [OLTIPRAZ] has an IC50 of 110 nM. `CCOC(=O)Cc1ccc(-c2ccccc2)cc1` [Felbinac ethyl] gave an IC50 of 80 nM. Work on `COC(=O)CC[C@H](NC(=O)[C@H](CC(=O)OC)NC(=O)OCc1ccccc1)C(=O)N[C@H](C(=O)N[C@@H](CC(=O)OC)C(=O)CF)C(C)C` [US9345789, Z-DEVD-FMK] yielded an IC50 of 10 nM.
